This assay relates to S. pneumoniae ATCC 49619. Put plainly: Minimal inhibitory concentration (MIC) by microdilution method (CLSI M7-A7). Particulars: Streptococcus pneumoniae, ATCC49619, cation-adjusted Mueller-Hinton Broth supplemented with 3% (v/v) lysed horse blood. The assay is classed as cell-based, Streptococcus pneumoniae. The method in brief:
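Broth microdilution per CLSI M7-A7 in cation-adjusted Mueller-Hinton broth, supplemented with 3% (v/v) lysed horse blood for S. pneumoniae; MIC reported in mg/l.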
(In general: Dilution methods test growth across graded concentrations, often in twofold steps.)

In brackets after ≈: the same amount, converted by molar mass.

For orientation: MIC means the least concentration at which growth counts as inhibited.

Compound `CCNC(=O)Nc1cc2cccc(Nc3ccc(O)cc3)c2cn1` [Example 175, 1-ethyl-3-[8-(4-hydroxy-phenylamino)-isoquinolin-3-yl]-urea] had an MIC of 16 µg/mL (≈ 49.6 µM).

Compound `CCNC(=O)Nc1cc2cccc(Nc3cccc(C(=O)OC)c3)c2cn1` [Example 176, 3-[3-(3-ethyl-ureido)-isoquinolin-8-ylamino]-benzoic acid methyl ester] had an MIC of 2 µg/mL (≈ 5.49 µM).

For `CCNC(=O)Nc1cc2cccc(Nc3cncc(OC)c3)c2cn1` [Example 177, 1-ethyl-3-[8-(5-methoxy-pyridin-3-ylamino)-isoquinolin-3-yl]-urea], the MIC was 2 µg/mL (≈ 5.93 µM).

Regarding `CCNC(=O)Nc1cc2cccc(Nc3cccc(OC)n3)c2cn1` [Example 178, 1-ethyl-3-[8-(6-methoxy-pyridin-2-ylamino)-isoquinolin-3-yl]-urea], the minimal inhibitory concentration (MIC) stood at 2 µg/mL (≈ 5.93 µM).

Compound `CCNC(=O)Nc1cc2cccc(Nc3ccc(C(=O)OC)cc3)c2cn1` [Example 179, 4-[3-(3-ethyl-ureido)-isoquinolin-8-ylamino]-benzoic acid methyl ester] registered an MIC of 4 µg/mL (≈ 11 µM).

As to `CCNC(=O)Nc1cc2cccc(Nc3ccnc(OC)c3)c2cn1` [Example 180, 1-ethyl-3-[8-(2-methoxy-pyridin-4-ylamino)-isoquinolin-3-yl]-urea], the MIC amounted to 4 µg/mL (≈ 11.9 µM).

Consider `CCNC(=O)Nc1cc2cccc(Nc3ccc(OC)cn3)c2cn1` [Example 181, 1-ethyl-3-[8-(5-methoxy-pyridin-2-ylamino)-isoquinolin-3-yl]-urea], for which the MIC stood at 8 µg/mL (≈ 23.7 µM).

`CCNC(=O)Nc1cc2cccc(NC(=O)c3ccc[nH]3)c2cn1.Cl` [Example 182, 1H-pyrrole-2-carboxylic acid [3-(3-ethyl-ureido)-isoquinolin-8-yl]-amide hydrochloride] had an MIC of 2 µg/mL.

`CCNC(=O)Nc1cc2cccc(NC(=O)c3cnn[nH]3)c2cn1.Cl` [Example 183, 3H-[1,2,3]triazole-4-carboxylic acid [3-(3-ethyl-ureido)-isoquinolin-8-yl]-amide hydrochloride] displayed an MIC of 4 µg/mL.

`CCNC(=O)Nc1cc2cc(NCc3ccc4cn[nH]c4c3)cc(C)c2cn1` [Example 184, 1-ethyl-3-{6-[(1H-indazol-6-ylmethyl)-amino]-8-methyl-isoquinolin-3-yl}-urea] came in with an MIC of 4 µg/mL (≈ 10.7 µM).

In turn, `CCNC(=O)Nc1cc2cc(NCc3ccnc(N4CCOCC4)c3)cc(C)c2cn1` [Example 185, 1-ethyl-3-{8-methyl-6-[(2-morpholin-4-yl-pyridin-4-ylmethyl)-amino]-isoquinolin-3-yl}-urea] gave an MIC of 4 µg/mL (≈ 9.51 µM).

As to `CCNC(=O)Nc1cc2cc(NCc3ccc(OCC(N)=O)cc3)cc(C)c2cn1` [Example 186, 2-(4-{[3-(3-ethyl-ureido)-8-methyl-isoquinolin-6-ylamino]-methyl}-phenoxy)-acetamide], the MIC was found to be 8 µg/mL (≈ 19.6 µM).

`CCNC(=O)Nc1cc2cc(NCc3cccc(-n4cncn4)c3)cc(C)c2cn1` [Example 187, 1-ethyl-3-[8-methyl-6-(3-[1,2,4]-triazol-1-yl-benzylamino)-isoquinolin-3-yl]-urea] gave an MIC of 8 µg/mL (≈ 19.9 µM).

`CCNC(=O)Nc1cc2cc(NCc3cccc(Cn4cncn4)c3)cc(C)c2cn1` [Example 188, 1-{6-[(3-((1H-1,2,4-triazol-1-yl)methyl)benzyl)amino]-8-methylisoquinolin-3-yl}-3-ethylurea] gave an MIC of 8 µg/mL (≈ 19.3 µM).

As for `CCNC(=O)Nc1cc2cc(NCc3ccc(S(=O)(=O)NC)cc3)cc(C)c2cn1` [Example 189, 4-{[3-(3-ethyl-ureido)-8-methyl-isoquinolin-6-ylamino]-methyl}-N-methyl-benzenesulfonamide], inhibition of growth (MIC) required 8 µg/mL (≈ 18.7 µM).

For the compound `CCNC(=O)Nc1cc2cccc(CNc3cccnc3)c2cn1` [Example 190, 1-ethyl-3-[8-(pyridin-3-ylaminomethyl)-isoquinolin-3-yl]-urea], the lowest concentration to inhibit growth (MIC) was 1 µg/mL (≈ 3.11 µM).

In turn, `CCNC(=O)Nc1cc2cccc(CNc3cc(C)nn3C)c2cn1` [Example 191, 1-{8-[(2,5-dimethyl-2H-pyrazol-3-ylamino)-methyl]-isoquinolin-3-yl}-3-ethyl-urea] came in with an MIC of 8 µg/mL (≈ 23.6 µM).

Turning to `CCNC(=O)Nc1cc2cccc(CNc3cc(C)ns3)c2cn1` [Example 192, 1-ethyl-3-{8-[(3-methyl-isothiazol-5-ylamino)-methyl]-isoquinolin-3-yl}-urea], 2 µg/mL (≈ 5.86 µM) was the least that counted as inhibitory (MIC).

The compound `CCNC(=O)Nc1cc2cc(NC(=O)c3ccc(C(=O)OC)cc3)cc(C)c2cn1` [Example 193, N-[3-(3-ethyl-ureido)-8-methyl-isoquinolin-6-yl]terephthalamic acid methyl ester] gave an MIC of 1 µg/mL (≈ 2.46 µM).

For the compound `CCNC(=O)Nc1cc2cc(NC(=O)c3cccc(C(=O)OC)c3)cc(C)c2cn1` [Example 194, N-[3-(3-ethyl-ureido)-8-methyl-isoquinolin-6-yl]isophthalamic acid methyl ester], the MIC was determined as 4 µg/mL (≈ 9.84 µM).

Compound `CCNC(=O)Nc1cc2cc(NC(=O)COC)cc(C)c2cn1` [Example 195, N-[3-(3-ethyl-ureido)-8-methyl-isoquinolin-6-yl]-2-methoxy-acetamide] registered an MIC of 4 µg/mL (≈ 12.6 µM).

In turn, `CCNC(=O)Nc1cc2cc(NCc3ccc(OC)nc3)cc(C)c2cn1.Cl` [Example 196, 1-ethyl-3-{6-[(6-methoxy-pyridin-3-ylmethyl)-amino]-8-methyl-isoquinolin-3-yl}-urea hydrochloride] yielded an MIC of 8 µg/mL.

`CCNC(=O)Nc1cc2cc(NCc3cccc(OC)c3)cc(C)c2cn1.Cl` [Example 197, 1-ethyl-3-[6-(3-methoxy-benzylamino)-8-methyl-isoquinolin-3-yl]-urea hydrochloride] yielded an MIC of 8 µg/mL.

With `CCNC(=O)Nc1cc2cccc(Nc3cccc(C(=O)O)c3)c2cn1` [Example 198, 3-[3-(3-ethyl-ureido)-isoquinolin-8-ylamino]-benzoic acid], inhibition of growth (MIC) required 1 µg/mL (≈ 2.85 µM).

`CCNC(=O)Nc1cc2cccc(Nc3cccc(C(=O)N(C)C)c3)c2cn1.Cl` [Example 199, 3-[3-(3-ethyl-ureido)-isoquinolin-8-ylamino]-N,N-dimethyl-benzamide hydrochloride] showed an MIC of 1 µg/mL.

Compound `CCNC(=O)Nc1cc2cccc(Nc3cccc(C(=O)NC)c3)c2cn1.Cl` [Example 200, 3-[3-(3-ethyl-ureido)-isoquinolin-8-ylamino]-N-methyl-benzamide hydrochloride] displayed an MIC of 1 µg/mL.

For `CCNC(=O)Nc1cc2cccc(Nc3cccc(C(=O)NCc4ccccc4)c3)c2cn1.Cl` [Example 201, N-benzyl-3-[3-(3-ethyl-ureido)-isoquinolin-8-ylamino]-benzamide hydrochloride], inhibition of growth (MIC) required 2 µg/mL.

As to `CCNC(=O)Nc1cc2cccc(Nc3ccc(C(=O)O)cc3)c2cn1` [Example 202, 4-[3-(3-ethyl-ureido)-isoquinolin-8-ylamino]-benzoic acid], the MIC stood at 1 µg/mL (≈ 2.85 µM).

For `CCNC(=O)Nc1cc2cccc(Nc3ccc(C(=O)N(C)C)cc3)c2cn1.Cl` [Example 203, 4-[3-(3-ethyl-ureido)-isoquinolin-8-ylamino]-N,N-dimethyl-benzamide hydrochloride], the MIC turned out to be 2 µg/mL.

As for `CCNC(=O)Nc1cc2cccc(Nc3ccc(C(=O)NC)cc3)c2cn1.Cl` [Example 204, 4-[3-(3-ethyl-ureido)-isoquinolin-8-ylamino]-N-methyl-benzamide hydrochloride], the MIC worked out at 2 µg/mL.

The values above are taken from patent US20130096119A1, “Isoquinolin-3-Ylurea Derivatives” (priority 2010, published 2013).
